Reference: patent US20100056524A1, “Compound” (priority 2008, published 2010)
Structures can show the parent of a compound that is named as a salt. Where two headings read alike, the source gives them in different places.

Target: T1, TBK1 (Homo sapiens, UniProt Q9UHD2)
T1 construct: All protein kinases were of human origin and encoded full length proteins, unless indicated otherwise; His6; made in house; host or cells: insect Sf21 cells
T1 sequence (Q9UHD2 1-729): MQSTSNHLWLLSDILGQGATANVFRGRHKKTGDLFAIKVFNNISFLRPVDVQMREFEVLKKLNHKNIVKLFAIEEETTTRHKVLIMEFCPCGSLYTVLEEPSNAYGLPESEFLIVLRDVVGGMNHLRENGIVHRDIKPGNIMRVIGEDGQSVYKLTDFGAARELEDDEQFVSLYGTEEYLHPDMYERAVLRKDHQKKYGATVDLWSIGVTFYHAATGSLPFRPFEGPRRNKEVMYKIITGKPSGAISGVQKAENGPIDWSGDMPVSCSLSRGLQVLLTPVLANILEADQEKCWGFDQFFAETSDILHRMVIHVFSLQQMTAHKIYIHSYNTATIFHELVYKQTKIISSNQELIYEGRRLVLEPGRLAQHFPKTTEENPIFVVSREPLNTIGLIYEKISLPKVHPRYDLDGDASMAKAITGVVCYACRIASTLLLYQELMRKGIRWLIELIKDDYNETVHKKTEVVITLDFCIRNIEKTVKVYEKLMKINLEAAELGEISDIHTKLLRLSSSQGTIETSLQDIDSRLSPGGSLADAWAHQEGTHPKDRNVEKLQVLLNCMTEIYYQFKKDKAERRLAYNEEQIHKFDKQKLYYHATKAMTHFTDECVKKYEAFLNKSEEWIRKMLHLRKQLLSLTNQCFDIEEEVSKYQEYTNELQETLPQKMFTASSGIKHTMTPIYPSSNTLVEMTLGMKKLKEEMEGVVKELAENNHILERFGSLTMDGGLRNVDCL
Experiment: TBK1 protein kinase assay ([γ-33P]ATP, P81 filterplates)
Type: biochemical
Conditions: for IC50: 50 μM ATP
Excerpt: All protein kinases were of human origin and encoded full length proteins, unless indicated otherwise. They were either expressed as glutathione S-transferase (GST) fusion proteins in Escherichia Coli or as hexahistidine (His6)-tagged proteins in insect Sf21 cells. GST fusion proteins were purified by affinity chromatography on glutathione-Sepharose, and His6-tagged proteins on nickel/nitriloacetate-agarose. The procedures for expressing some of the protein kinases used herein have been detailed previously.^8,9 The following sections outline the DNA vectors synthesised and the procedures used to express and purifying protein kinases that have not been reported previously.
The following kinases were expressed in Sf21 cells: Aurora B and Aurora C, extra-cellular signal-regulated kinase 8 (ERK8), microtubule affinity regulating kinase 3 (MARK3), protein kinase Bα[118-480][S473D], protein kinase Bβ (PKBβ[120-481][S474D], 3-phosphoinositide-dependent protein kinase-1 [52-556]
Assays were performed for 30 min using Multidrop Micro reagent dispensers (Thermo Electron Corporation, Waltham, Mass. 02454, USA) in a 96-well format. The concentration of magnesium acetate in the assays was 10 mM and the [γ-33P] ATP (800 cpm/pmol) was used at 5, 20 or 50 μM as indicated, in order to be at or below the Km for ATP for each enzyme. Protein kinases assayed at 5 μM ATP were: —ERK1, ERK8, PKBα, MARK3, Aurora C. Protein kinases assayed at 20 μM ATP were: —JNK1, PDK1, CHK1, CHK2, CDK2 and Aurora B. Protein kinases assayed at 50 μM ATP were: —MNK2, IKKepsilon and TBK1.
The assays were initiated with MgATP, stopped by addition of 5 μl of 0.5 M orthophosphoric acid and spotted on to P81 filterplates using a unifilter harvester (PerkinElmer, Boston, Mass. 02118, USA). The IC50 values of inhibitors were determined after carrying out assays at 10 different concentrations of each compound.
ERK1 and ERK8 were both assayed against myelin basic protein (MBP, 0.33 mg/ml). MARK3 was assayed against the peptide […] (300 μM), MNK2 against the eIF4E protein (0.5 mg/ml). PKBβ was assayed against the peptide […] (30 μM). TBK1 were assayed against ([…]) (300 μM). The substrates used for other protein kinases were described previously.^8,9
Unless stated otherwise, enzymes were diluted in 50 mM Tris/HCl pH 7.5, 0.1 mM EGTA, 1 mg/ml BSA, 0.1% (v/v) 2-mercaptoethanol and assayed in 50 mM Tris/HCl pH 7.5, 0.1 mM EGTA, 0.1% (v/v) 2-mercaptoethanol.

[1] = read-out: Potency (TBK1 IC50 potency score)

Row | Compound | IC50 [1] [µM] | other results
1 | CC(C)c1cnc(Nc2cccc(F)c2)nc1NCCCNC(=O)C1CCC1 [Compound B, cyclobutanecarboxylic acid {3-[2-(3-fluoro-phenylamino)-5-isopropyl-pyrimidin-4-ylamino]-propyl}-amide, reference compound] |  | IC50 (Table 5, read-out: TBK1 IC50): > 1 µM
2 | O=C(NCCCNc1nc(Nc2cccc(F)c2)ncc1CC1CC1)C1CCC1 [Compound C, cyclobutanecarboxylic acid {3-[5-cyclopropylmethyl-2-(3-fluoro-phenylamino)-pyrimidin-4-ylamino]-propyl}-amide, reference compound] |  | IC50 (Table 5, read-out: TBK1 IC50): > 1 µM
3 | CCc1cnc(Nc2cccc(F)c2)nc1NCCCNC(=O)C1CCC1 [Compound D, cyclobutanecarboxylic acid {3-[5-ethyl-2-(3-fluoro-phenylamino)-pyrimidin-4-ylamino]-propyl}-amide, reference compound] |  | IC50 (Table 5, read-out: TBK1 IC50): 0.042 µM; fold loss in activity against TBK1 compared to Example 23 (from TBK1 IC50 values of Table 5): 10 fold
4 | CC(=O)NCCCNc1nc(Nc2cccc(F)c2)ncc1C1CC1 [Example 1, N-{3-[5-Cyclopropyl-2-(3-fluoro-phenylamino)-pyrimidin-4-ylamino]-propyl}-acetamide trifluoroacetic acid salt] | 0.1 to 1 | 
5 | CC(C)C(=O)NCCCNc1nc(Nc2cccc(F)c2)ncc1C1CC1 [Example 2, N-{3-[5-Cyclopropyl-2-(3-fluoro-phenylamino)-pyrimidin-4-ylamino]-propyl}-isobutyramide trifluoroacetic acid salt] | < 0.1 | 
6 | O=C(NCCCNc1nc(Nc2cccc(F)c2)ncc1C1CC1)C1CCCCC1 [Example 3, Cyclohexanecarboxylic acid {3-[5-cyclopropyl-2-(3-fluoro-phenylamino)-pyrimidin-4-ylamino]-propyl}-amide trifluoroacetic acid salt] | < 0.1 | 
7 | CN(C)CC(=O)NCCCNc1nc(Nc2cccc(F)c2)ncc1C1CC1 [Example 4, N-{3-[5-Cyclopropyl-2-(3-fluoro-phenylamino)-pyrimidin-4-ylamino]-propyl}-2-dimethylamino-acetamide trifluoroacetic acid salt] | 0.1 to 1 | 
8 | O=C(NCCCNc1nc(Nc2cccc(F)c2)ncc1C1CC1)c1ccco1 [Example 5, Furan-2-carboxylic acid{3-[5-cyclopropyl-2-(3-fluoro-phenylamino)-pyrimidin-4-ylamino]-propyl}-amide trifluoroacetic acid salt] | 0.1 to 1 | 
9 | O=C(CC1CCCC1)NCCCNc1nc(Nc2cccc(F)c2)ncc1C1CC1 [Example 6, 2-Cyclopentyl-N-{3-[5-cyclopropyl-2-(3-fluoro-phenylamino)-pyrimidin-4-ylamino]-propyl}-acetamide trifluoroacetic acid salt] | < 0.1 | 
10 | O=C(NCCCNc1nc(Nc2cccc(F)c2)ncc1C1CC1)c1ccn[nH]1 [Example 7, 2H-Pyrazole-3-carboxylic acid {3-[5-cyclopropyl-2-(3-fluoro-phenylamino)-pyrimidin-4-ylamino]-propyl}-amide trifluoroacetic acid salt] | 0.1 to 1 | 
11 | Cc1oncc1C(=O)NCCCNc1nc(Nc2cccc(F)c2)ncc1C1CC1 [Example 8, 5-Methyl-isoxazole-4-carboxylic acid{3-[5-cyclopropyl-2-(3-fluoro-phenylamino)-pyrimidin-4-ylamino]-propyl}-amide trifluoroacetic acid salt] | < 0.1 | 
12 | O=C(NCCCNc1nc(Nc2cccc(F)c2)ncc1C1CC1)c1nc[nH]n1 [Example 9, 1H-1,2,4-Triazole-3-carboxylic acid {3-[5-cyclopropyl-2-(3-fluoro-phenylamino)-pyrimidin-4-ylamino]-propyl}-amide trifluoroacetic acid salt] | 0.1 to 1 | 
13 | Cn1cnc(C(=O)NCCCNc2nc(Nc3cccc(F)c3)ncc2C2CC2)c1 [Example 10, 1-Methyl-1H-imidazole-4-carboxylic acid {3-[5-cyclopropyl-2-(3-fluoro-phenylamino)-pyrimidin-4-ylamino]-propyl}-amide trifluoroacetic acid salt] | 1 to 10 | 
14 | O=C(NCCCNc1nc(Nc2cccc(F)c2)ncc1C1CC1)c1cncs1 [Example 11, Thiazole-5-carboxylic acid {3-[5-cyclopropyl-2-(3-fluoro-phenylamino)-pyrimidin-4-ylamino]-propyl}-amide] | < 0.1 | 
15 | Cc1ccc(C(=O)NCCCNc2nc(Nc3cccc(F)c3)ncc2C2CC2)s1 [Example 12, 5-Methyl-thiophene-2-carboxylic acid {3-[5-cyclopropyl-2-(3-fluoro-phenylamino)-pyrimidin-4-ylamino]-propyl}-amide] | 0.1 to 1 | 
16 | Cc1n[nH]c(C)c1C(=O)NCCCNc1nc(Nc2cccc(F)c2)ncc1C1CC1 [Example 13, 3,5-Dimethyl-1H-pyrazole-4-carboxylic acid {3-[5-cyclopropyl-2-(3-fluoro-phenylamino)-pyrimidin-4-ylamino]-propyl}-amide] | 1 to 10 | 
17 | O=C(NCCCNc1nc(Nc2cccc(F)c2)ncc1C1CC1)C1CCOC1 (stereo not shown) [Example 14, Tetrahydro-furan-3-carboxylic acid {3-[5-cyclopropyl-2-(3-fluoro-phenylamino)-pyrimidin-4-ylamino]-propyl}-amide] | < 0.1 | 

Second part, led by results:

Row | IC50 [1] [µM] | Compound | other results
18 | 0.1 to 1 | O=C(NCCCNc1nc(Nc2cccc(F)c2)ncc1C1CC1)C1CCCO1 (stereo not shown) [Example 15, Tetrahydro-furan-2-carboxylic acid {3-[5-cyclopropyl-2-(3-fluoro-phenylamino)-pyrimidin-4-ylamino]-propyl}-amide] | 
19 | 0.1 to 1 | Cn1cccc1C(=O)NCCCNc1nc(Nc2cccc(F)c2)ncc1C1CC1 [Example 16, 1-Methyl-1H-pyrrole-2-carboxylic acid {3-[5-cyclopropyl-2-(3-fluoro-phenylamino)-pyrimidin-4-ylamino]-propyl}-amide] | 
20 | < 0.1 | O=C(NCCCNc1nc(Nc2cccc(F)c2)ncc1C1CC1)c1ccsc1 [Example 17, Thiophene-3-carboxylic acid {3-[5-cyclopropyl-2-(3-fluoro-phenylamino)-pyrimidin-4-ylamino]-propyl}-amide] | 
21 | 1 to 10 | Cn1ccnc1C(=O)NCCCNc1nc(Nc2cccc(F)c2)ncc1C1CC1 [Example 18, 1-Methyl-1H-imidazole-2-carboxylic acid {3-[5-cyclopropyl-2-(3-fluoro-phenylamino)-pyrimidin-4-ylamino]-propyl}-amide] | 
22 | 0.1 to 1 | O=C(NCCCNc1nc(Nc2cccc(F)c2)ncc1C1CC1)c1cocn1 [Example 19, Oxazole-4-carboxylic acid {3-[5-cyclopropyl-2-(3-fluoro-phenylamino)-pyrimidin-4-ylamino]-propyl}-amide] | 
23 | < 0.1 | O=C(NCCCNc1nc(Nc2cccc(F)c2)ncc1C1CC1)c1nccs1 [Example 20, Thiazole-2-carboxylic acid {3-[5-cyclopropyl-2-(3-fluoro-phenylamino)-pyrimidin-4-ylamino]-propyl}-amide] | 
24 | 0.1 to 1 | O=C(NCCCNc1nc(Nc2cccc(F)c2)ncc1C1CC1)c1ccc(Cl)s1 [Example 21, 5-Chloro-thiophene-2-carboxylic acid {3-[5-cyclopropyl-2-(3-fluoro-phenylamino)-pyrimidin-4-ylamino]-propyl}-amide] | 
